Measured values: the NIST ThermoML archive (doi:10.1021/acs.jced.6b00640)

Test: refractive index (Na D-line) (dimensionless); xn = mol fraction of the nth substance listed
Conditions: 100 kPa, Liquid, Standard Abbe refractometry

CCOC(=O)CCC(=O)OCC [diethyl butanedioate] + CCCC(=O)OCC
refractive index
Conditions	x2 = 0.0999	x2 = 0.2	x2 = 0.3003	x2 = 0.3999	x2 = 0.5	x2 = 0.5997	x2 = 0.7	x2 = 0.7999	x2 = 0.8999
288.15 K	1.4198	1.4177	1.4154	1.413	1.4104	1.4076	1.4048	1.4016	1.3986
293.15 K	1.4176	1.4155	1.4132	1.4107	1.4081	1.4053	1.4024	1.3992	1.3961
298.15 K	1.4154	1.4132	1.4109	1.4084	1.4058	1.403	1.4	1.3968	1.3937
303.15 K	1.4132	1.411	1.4086	1.4061	1.4035	1.4006	1.3976	1.3944	1.3912
308.15 K	1.411	1.4088	1.4063	1.4038	1.4011	1.3982	1.3952	1.392	1.3888
313.15 K	1.4088	1.4065	1.4041	1.4015	1.3988	1.3959	1.3928	1.3895	1.3862
318.15 K	1.4066	1.4043	1.4018	1.3992	1.3964	1.3935	1.3904	1.387	1.3837
323.15 K	1.4044	1.402	1.3995	1.3968	1.394	1.391	1.3878	1.3844	1.3809
